Holding throughout (type): in vivo
Parameters in all cases: fold induction: dose or concentration left out as unconfirmed

Experiment [1] deals with Contig8905_at, Xytanase inhibitor protein. Briefly: GEP, barley DNA chip, probe set 3.1. To be noted: barley leaves 6 h after spray application, median induction factor vs control; for fold induction: Hordeum vulgare, topical, rates of Table 1 (S7 500), read-out: Expression value, 3.1 Contig8905_at. How it is done:
(§1) Barley plants (cv. Baronesse) were grown in compost-filled pots (diameter: 10 cm) for 10 days in a controlled-environment cabinet under defined light, humidity and temperature conditions (white light, 70% atmospheric humidity, 24° C.). At the time of spray application, the seedlings were approximately 15 cm in size. The test substances selected in this example were molecules which differ markedly in their structure and which have a well documented pronounced safener effect, and other molecules which are known from the literature to have an effect on plant stress and pathogen tolerance (Table 1). The substances were prepared as stock solutions in DMSO (dimethyl sulfoxide) at c=10 mg/ml). This was used for preparing dilutions in water supplemented with 0.2% Agrotin (comprises polyvinyl alcohol, silicones, polysaccharides and pH regulators, manufacturer: Bayer CropScience AG, Monheim, Germany), as wetter, to give the application rates shown in the table. The amount of liquid for the spray application was 800 μl per pot, corresponding to 800 l/ha. For each 800 μl of spray mixture, 16 μl of EC premix: diacetone alcohol=1:6 were additionally added as formulation auxiliaries. The substances listed in Table 1 were applied to the leaves by means of a pneumatic spray pistol. Each substance was sprayed as 2 dosages, and all experiments were carried out as replicates (2 pots per substance). Sprayings with blank formulation without active ingredient were carried out as controls. After 6 hours, the leaves were harvested, frozen in liquid nitrogen and stored at −80° C. until further use. The labeled RNA probes for the DNA chip hybridization were prepared as described in the protocols (Expression Analysis, Technical Manual) from Affymetrix (Affymetrix Inc., 3380 Central Expressway, Santa Clara, Calif., USA). First, total RNA was isolated from in each case 500 mg of the harvested leaves. In each case 10 μg of total RNA was used for the first-strand and second-strand cDNA synthesis. The cDNA was amplified with T7 polymerase and simultaneously labeled with biotin-UTP. In each case, 20 μg of this biotinylated cDNA was employed for the hybridization of the barley genome array (Gene Chip Barleyl, order No.: 511012) from Affymetrix. This DNA microarray comprises DNA sequences of 22 840 genes which are composed of a total of 400 000 EST sequences. Thereafter, the DNA microarrays were washed in the Affymetrix Fluidics Station, stained with streptavidin/phycoerythrin (Molecular Probes, P/N S-866) and scanned with the matching Agilent Laser Scanner (Agilent Gene Array Scanner). The fluorescent data obtained were analyzed with the software Microarray Suite 5 from Affymetrix. After the quality had been checked, all DNA chip analyses were stored in a database. To determine the relative expression values for genes (induction factors, repression factors), test and control chips were compared with each other, and the scoring function set by the Affymetrix software was used as the basis. The 2 biological replications of one experiment were compared in each case with 2 control chips (blank formulation), and the 4 expression values obtained for each gene were used for calculating the median. These medians are shown in the results tables as induction factors. Similarity comparisons of expression profiles from different experiments and cluster analyses were carried out using the software GeneMaths 1.5 from Applied Maths (Applied Maths, Keistraat 120, 9830 Sint-Martens-Latem, Belgium).
(§2) Gene groups from specific metabolic pathways and signal transduction chains were put together by key word search in the annotations, of the genes, which were also provided by Affymetrix, and by Blast analyses (homology comparisons) of the DNA target sequences, i.e. of the positive sequence (identified on the basis of a modified expression profile) identified on the DNA chip, using gene sequences from other organisms, preferably plant organisms, with characterized functions. […]

Experiment [2] deals with Contig2992_s_at, Chitinase (EC 3.2.1.14). Briefly: GEP, barley DNA chip, probe set 5.2. To be noted: barley leaves 6 h after spray application, median induction factor vs control; for fold induction: Hordeum vulgare, topical, rates of Table 1 (S7 500), read-out: Expression value, 5.2 Contig2992_s_at. On the procedure:
as §1, §2

Experiment [3] concerns HI02E21u_s_at, Lipoxygenase (EC 1.13.11.12). Briefly: GEP, barley DNA chip, probe set 1.2. Particulars: barley leaves 6 h after spray application, median induction factor vs control; for fold induction: Hordeum vulgare, topical, rates of Table 1 (S7 500), read-out: Expression value, 1.2 HI02E21u_s_at. How it is done:
as §1, §2

In experiment [4] the test system is Contig2990_at, Chitinase (EC 3.2.1.14). In words: GEP, barley DNA chip, probe set 5.1. To be noted: barley leaves 6 h after spray application, median induction factor vs control; for fold induction: Hordeum vulgare, topical, rates of Table 1 (S7 500), read-out: Expression value, 5.1 Contig2990_at. How it is done:
as §1, §2

Experiment [5] has as its system Contig2337_at, 12-oxophytodienoate reductase (OPR1). In words: GEP, barley DNA chip, probe set 1.20. To be noted: barley leaves 6 h after spray application, median induction factor vs control; for fold induction: Hordeum vulgare, topical, rates of Table 1 (S7 500), read-out: Expression value, 1.20 Contig2337_at. How it is done: as §1, §2
Experiment [6] concerns Contig9556_at, 12-oxophytodienoate reductase 3. Briefly: GEP, barley DNA chip, probe set 1.8. To be noted: barley leaves 6 h after spray application, median induction factor vs control; for fold induction: Hordeum vulgare, topical, rates of Table 1 (S7 500), read-out: Expression value, 1.8 Contig9556_at. On the procedure: as §1, §2
The test system of experiment [7] is Contig5369_at, Pathogen-related protein. Briefly: GEP, barley DNA chip, probe set 4.2. To be noted: barley leaves 6 h after spray application, median induction factor vs control; for fold induction: Hordeum vulgare, topical, rates of Table 1 (S7 500), read-out: Expression value, 4.2 Contig5369_at. How it is done:
as §1, §2

Experiment [8] relates to Contig13413_at, Similar to lipases. Briefly: GEP, barley DNA chip, probe set 1.17. Particulars: barley leaves 6 h after spray application, median induction factor vs control; for fold induction: Hordeum vulgare, topical, rates of Table 1 (S7 500), read-out: Expression value, 1.17 Contig13413_at. How it is done: as §1, §2
Experiment [9] relates to Contig2305_at, Methyljasmonate inducible lipoxygenase. In words: GEP, barley DNA chip, probe set 1.14. Particulars: barley leaves 6 h after spray application, median induction factor vs control; for fold induction: Hordeum vulgare, topical, rates of Table 1 (S7 500), read-out: Expression value, 1.14 Contig2305_at. How it is done: as §1, §2
The test system of experiment [10] is Contig6194_a_at, 12-oxophytodienoic acid reductase. In words: GEP, barley DNA chip, probe set 1.7. To be noted: barley leaves 6 h after spray application, median induction factor vs control; for fold induction: Hordeum vulgare, topical, rates of Table 1 (S7 500), read-out: Expression value, 1.7 Contig6194_a_at. On the procedure:
as §1, §2

The test system of experiment [11] is Contig2088_s_at, Bowman-Birk type trypsin inhibitor. Briefly: GEP, barley DNA chip, probe set 2.1. To be noted: barley leaves 6 h after spray application, median induction factor vs control; for fold induction: Hordeum vulgare, topical, rates of Table 1 (S7 500), read-out: Expression value, 2.1 Contig2088_s_at. How it is done:
as §1, §2

In experiment [12] the test system is Contig2118_at, Peroxidase (EC 1.11.1.7), pathogen-induced. In words: GEP, barley DNA chip, probe set 4.1. Particulars: barley leaves 6 h after spray application, median induction factor vs control; for fold induction: Hordeum vulgare, topical, rates of Table 1 (S7 500), read-out: Expression value, 4.1 Contig2118_at. On the procedure: as §1, §2
In experiment [13] the test system is Contig6611_at, Similar to lipases. In words: GEP, barley DNA chip, probe set 1.12. To be noted: barley leaves 6 h after spray application, median induction factor vs control; for fold induction: Hordeum vulgare, topical, rates of Table 1 (S7 500), read-out: Expression value, 1.12 Contig6611_at. On the procedure:
as §1, §2

Setting [14] is: rates of Table 1 (150 g a.i./ha, S7 500).

Molecules are shown by their SMILES.

On to `CCCCCC(C)OC(=O)COc1ccc(Cl)c2cccnc12` (stereo not shown) [S4, Cloquintocet-mexyl], for which the fold induction in experiment [1] was determined as 2.73; in [2] it was 1; in [3] it was 1; in [4], 1; in experiment [5], 1; in experiment [6], 1. Besides, the fold induction stood at 1 in [7]; 1 in experiment [8]; 1 in experiment [9]; 2.17 in [10]; 1 in [11]; 1 in experiment [12]. The fold induction in [13] was determined as 1.
As for `CSC(=O)c1cccc2nnsc12` [S8, Acibenzolar-S-methyl], the fold induction in [1], in experiment [2], in [3], in experiment [4], in experiment [5] and in [6] was 1 throughout. Moreover, the fold induction was 1 in [7]; 2.17 in [8]; 81.6 in experiment [9]; 1 in [10]; 7.36 in experiment [11]; 1 in [12]. In addition, the fold induction in [13] worked out at 3.61.
Turning to `O=C(O)C1=NN(c2ccc(Cl)cc2Cl)C(c2ccc(F)cc2)C1` (stereo not shown) [S2], the fold induction in experiment [1] was found to be 2.53; in experiment [2], 1; in [3] it was 1; in [4], 1; in experiment [5], 1; in [6], 1. Moreover, the fold induction in experiment [7] was found to be 1; in experiment [8], 1; in experiment [9], 1; in [10], 4.14; in experiment [11] it was 1; in [12] it was 1. Moreover, the fold induction in experiment [13] stood at 1.
`O=C(NO)c1ccccc1O` [S7, Salicyl hydroxamate]: in [1] (setting [14]), the “Expression value, 3.1 Contig8905_at” value is recorded as 1.00 x times. In addition, in experiment [2] (setting [14]), the “Expression value, 5.2 Contig2992_s_at” value was 1.00 x times. Moreover, the “Expression value, 1.2 HI02E21u_s_at” value in [3] (setting [14]) worked out at 1.00 x times. The “Expression value, 5.1 Contig2990_at” value in experiment [4] (setting [14]) is on record as 1.00 x times. Besides, the “Expression value, 1.20 Contig2337_at” value in [5] (setting [14]) is on record as 1.00 x times. The “Expression value, 1.8 Contig9556_at” value in [6] (setting [14]) came out at 1.00 x times. Further, in experiment [7] (setting [14]), the “Expression value, 4.2 Contig5369_at” value stood at 1.00 x times. The “Expression value, 1.17 Contig13413_at” value in experiment [8] (setting [14]) is 1.00 x times. In [9] (setting [14]), the “Expression value, 1.14 Contig2305_at” value was determined as 41.07 x times. The “Expression value, 1.7 Contig6194_a_at” value in experiment [10] (setting [14]) is recorded as 1.00 x times. Further, the “Expression value, 2.1 Contig2088_s_at” value in experiment [11] (setting [14]) is 4.79 x times. For the same compound, in experiment [12] (setting [14]), the “Expression value, 4.1 Contig2118_at” value is recorded as 1.00 x times. Moreover, the “Expression value, 1.12 Contig6611_at” value in [13] (setting [14]) turned out to be 2.31 x times.

Values taken from US20070265164A1, “Active Substances for Increasing Pathogenic Defense in Plants and Methods for the Detection Thereof” (Bayer Cropscience GmbH, priority 2004, published 2007).
